Drawing on ChEMBL document CHEMBL5357002, “Heterodimers of Aromadendrane Sesquiterpenoid with Benzoquinone from the Chinese Liverwort Mylia nuda” (J Nat Prod, 2024), this text covers Activity and viability for 6 molecules.

The source made the active and inactive calls. The rule behind the calls is not given here.

Data set [1] relates to SH-SY5Y. The data set is described as follows: Cytoprotective activity against glutamic acid induced injury in human SH-SY5Y cells assessed as increase in cell viability at 10 to 20 uM by MTT assay. The format is functional, cell-based. To be noted: dose 10-20 µM.
Data set [2] deals with SH-SY5Y. As to the kind of experiment: Cytoprotective activity against glutamic acid induced injury in human SH-SY5Y cells assessed as improvement in cell morphology at 10 uM by immunofluorescence analysis. The class given is functional, cell-based.
Data set [3] is described as follows: Induction of apoptosis in human SH-SY5Y cells assessed as viable cells incubated for 24 hrs by Annexin V-FITC/PI staining based flow cytometry analysis (reference value: 99.87%). The class given is toxicity, cell-based. To be noted: read-out: Activity.
The test system of data set [4] is SH-SY5Y. As to the kind of experiment: Induction of apoptosis in human SH-SY5Y cells assessed as early apoptotic cells incubated for 24 hrs by Annexin V-FITC/PI staining based based flow cytometry analysis (reference value: 0.03%). The class given is toxicity, cell-based. On the technique in general: In flow cytometry, cells or beads pass a laser one at a time.

The test system of data set [5] is SH-SY5Y. As to the kind of experiment: Induction of apoptosis in human SH-SY5Y cells assessed as late apoptotic cells incubated for 24 hrs by Annexin V-FITC/PI staining based flow cytometry analysis (reference value: 0.04%). The format is toxicity, cell-based.
Data set [6] concerns SH-SY5Y. As to the kind of experiment: Induction of apoptosis in human SH-SY5Y cells assessed as necrotic cells incubated for 24 hrs by Annexin V-FITC/PI staining based flow cytometry analysis (reference value: 0.06%). The class given is toxicity, cell-based.
For data set [7], the system named is SH-SY5Y. The data set is described as follows: Induction of apoptosis in glutamic acid induced human SH-SY5Y cells assessed as necrotic cells incubated for 24 hrs by Annexin V-FITC/PI staining based flow cytometry analysis (reference value: 3.64%). The format is functional.
For data set [8], the system named is SH-SY5Y. As to the kind of experiment: Induction of apoptosis in glutamic acid induced human SH-SY5Y cells assessed as late apoptotic cells incubated for 24 hrs by Annexin V-FITC/PI staining based flow cytometry analysis (reference value: 0.21%). The class given is functional.
Data set [9] concerns SH-SY5Y. The data set is described as follows: Induction of apoptosis in glutamic acid induced human SH-SY5Y cells assessed as early apoptotic cells incubated for 24 hrs by Annexin V-FITC/PI staining based flow cytometry analysis (reference value: 34.60%). The class given is functional.
For data set [10], the system named is SH-SY5Y. As to the kind of experiment: Induction of apoptosis in glutamic acid induced human SH-SY5Y cells assessed as viable cells incubated for 24 hrs by Annexin V-FITC/PI staining based flow cytometry analysis (reference value: 61.55%). The class given is functional.
For data set [11], the system named is SH-SY5Y. The data set is described as follows: Cytoprotective activity against glutamic acid induced injury in human SH-SY5Y cells assessed as decrease in ROS level at 10 uM by DCFH-DA staining based flow cytometry. The class given is functional, cell-based.

Turning to `COc1ccc(OC2=C(C)C(=O)[C@@H]3[C@H](C2=O)[C@H]2C[C@@H]3C([C@@H]3[C@H](CCC(C)=O)C3(C)C)=C2C)cc1C`, in [1], the result was Active.

Turning to `COc1ccc(OC2=C(C)C(=O)[C@H]3[C@@H](C2=O)[C@@H]2C[C@H]3C([C@@H]3[C@H](CCC(C)=O)C3(C)C)=C2C)cc1C`, the outcome in data set [1] was Active.

In the case of `COc1ccc(OC2=C[C@@H]3C(=O)[C@](C)(C2=O)[C@@]2(C)C([C@@H]4[C@H](CCC(C)=O)C4(C)C)=CC[C@@H]32)cc1C`, the result in data set [1] was Active.

On to `COc1ccc(OC2=C(C)C(=O)[C@H]3[C@@H](C2=O)[C@@H]2C[C@@]3(C)C([C@@H]3[C@H](CCC(C)=O)C3(C)C)=C2C)cc1C`, for which, in data set [1], the result was Active.

Turning to `COc1ccc(OC2=C(C)C(=O)[C@@H]3[C@H](C2=O)[C@H]2C[C@@H]3C(C)=C2[C@@H]2[C@H](CCC(C)=O)C2(C)C)cc1C`, the outcome in data set [1], in data set [2] and in data set [11] was Active. In [3], the viability at 24 h amounted to 96%. Also, the Activity stood at 0.39% in [4]; 0.08% in [5]; 3.59% in data set [6]; 4.49% in data set [7]; 0.17% in [8]; 14.23% in data set [9]. The Activity in data set [10] turned out to be 81.11%.

On to `COc1ccc(OC2=C(C)C(=O)[C@H]3[C@@H](C2=O)[C@@H]2C[C@H]3C(C)=C2[C@@H]2[C@H](CCC(C)=O)C2(C)C)cc1C`, for which, in [1], the result was Active.
